pIC50: −log10 of the molar value. Read-outs that look alike come from different tables or passages of the source. Where no end group is shown, it is not given here.
Assays:
[1] = target: T1, growth hormone secretagogue receptor (GHSR), porcine anterior pituitary membranes (Sus scrofa, UniProt Q95254); test: [35S]-Compound A radioreceptor binding, porcine anterior pituitary membranes; conditions: for affinity relative to that of Compound A: % of affinity of Compound A; for nature of competition with [35S]-Compound A (in words): double reciprocal plot of saturation isotherm, FIG. 25
T1 construct: Frozen anterior pituitary glands from male swine (50-80 Kg); from tissue; host or cells: anterior pituitary glands of male swine (50-80 kg), crude membranes
Experimental: Frozen anterior pituitary glands from male swine (50-80 Kg) or from the Wistar male rats (150-200 g) were homogenized in a tissue homogenizer in ice-cold buffer (50 mM Tris-HCl buffer, pH 7.4, 5 mM MgCl2, 2.5 mM EDTA, 0.1% bovine serum albumin and 30 μg/ml bacitracin). The homogenates were centrifuged for 5 min at 1,400×g and the resulting supernatants were then centrifuged at 34,000×g for 20 min. The pellets were resuspended in same buffer to a 1,500 μg protein/ml and stored at -80° C. Protein was determined by a Bio-Rad method (Bio-Rad Laboratories, Richmond, Calif.).
Aliquots were incubated at 20° C. for 60 min and bound radioligand was separated from free by filtration through GF/C filters pretreated with 0.5% of polyethylenimine in a Brandel cell harvester. […] Assays were carried out in triplicate and experiments repeated at least three times.

[2] = target: growth hormone secretagogue receptor (GHSR) of swine, native receptor of the anterior pituitary (swine) (UniProt Q95254); test: competition with [35S]-Compound A on porcine anterior pituitary membranes, filtration

T1 sequence (Q95254 whole entry): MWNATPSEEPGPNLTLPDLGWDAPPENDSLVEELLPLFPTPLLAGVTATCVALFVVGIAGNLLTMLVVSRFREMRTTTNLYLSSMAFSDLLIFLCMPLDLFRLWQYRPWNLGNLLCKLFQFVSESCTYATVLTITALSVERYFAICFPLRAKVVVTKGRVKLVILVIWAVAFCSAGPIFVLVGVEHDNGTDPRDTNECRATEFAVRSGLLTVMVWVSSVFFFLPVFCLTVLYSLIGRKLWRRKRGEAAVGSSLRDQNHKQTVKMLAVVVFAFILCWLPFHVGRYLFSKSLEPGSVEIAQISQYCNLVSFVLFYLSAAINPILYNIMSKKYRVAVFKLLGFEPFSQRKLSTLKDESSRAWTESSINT

Compound	competition with [35S]-Compound A at 1 μM (in words) [1]	also measured
CC(C)(N)CC(=O)N[C@H]1CCc2ccccc2N(Cc2ccc(-c3ccccc3-c3nn[nH]n3)cc2)C1=O [Compound C]	–	displacement of / competition with [35S]-Compound A binding (in words) ([1]; unlabeled competitor, FIG. 24): competed poorly
CC(C)NCC(O)c1ccc(O)c(O)c1 (stereo not drawn) [isoproterenol]	did not compete	–
Nc1nc2c(ncn2[C@@H]2O[C@H](COP(=O)(O)OP(=O)(O)OP(O)(O)=S)[C@@H](O)[C@H]2O)c(=O)[nH]1 [GTP-γ-S]	–	pIC50 [1]: 7.52
NC(=O)[C@@H]1CCCN1C(=O)[C@H](Cc1cnc[nH]1)NC(=O)[C@@H]1CCC(=O)N1 [thyrotropin releasing hormone]	did not compete	–
CC(COc1ccccc1)N(CCCl)Cc1ccccc1 (stereo not drawn) [phenoxybenzamine]	did not compete	–
met-enkephalin	did not compete	–
substance P	did not compete	–
CC(C)C[C@H]1C(=O)N2CCC[C@H]2[C@]2(O)O[C@](NC(=O)[C@@H]3C=C4c5cccc6[nH]c(Br)c(c56)C[C@H]4N(C)C3)(C(C)C)C(=O)N12 [bromocriptine]	did not compete	–
melanocyte stimulating hormone	did not compete	–
GHRP-6 (peptide)	–	affinity as percent of that of Compound A [2]: 3.8%
GHRP-6	–	affinity relative to that of Compound A [1]: 3.8%; nature of competition with [35S]-Compound A (in words) [1]: interacts competitively with Compound A in the same binding site
GHRH: hypothalamic hormone, growth hormone releasing factor	did not compete	–
Nc1ncnc2c1ncn2[C@@H]1O[C@H](COP(=O)(O)OP(=O)(O)OP(O)(O)=S)[C@@H](O)[C@H]1O [ATP-γ-S]	–	effect on [35S]-Compound A binding (in words) ([1]; nucleotides, FIG. 26): ineffective
CC(C)NC[C@H](O)COc1cccc2ccccc12 (racemic) [propanolol]	did not compete	–
gastrin releasing peptide (VPLPAGGGTVLTKMYPRGNHWAVGHLM; ends and bridges not checked; UniProt P07492 24-50, looked up)	did not compete	–
gonadotropin releasing hormone	did not compete	–
pituitary adenylate cyclase activating polypeptide-38	did not compete	–
Nc1nc2c(ncn2[C@@H]2O[C@H](COP(=O)(O)OP(=O)(O)NP(=O)(O)O)[C@@H](O)[C@H]2O)c(=O)[nH]1 [GMP-PNP]	–	pIC50 ([1]; GTP analogs / nucleotides, FIG. 26, read-out: inhibition of [35S]-Compound A binding, IC50): 6.96
COc1cccc(OC)c1OCCNCC1CSc2ccccc2O1 (stereo not drawn) [benoxathian]	did not compete	–
somatostatin: hypothalamic hormone	did not compete	–
CC(C)(N)CC(=O)N[C@@H]1CCc2ccccc2N(Cc2ccc(-c3ccccc3-c3nn[nH]n3)cc2)C1=O [Compound B]	–	affinity relative to that of Compound A [1]: 0.4%; nature of competition with [35S]-Compound A (in words) [1]: competitor of [^35 S]-Compound A binding
PHM-27 (HADGVFTSDFSKLLGQLSAKKYLESLM; ends and bridges not checked; UniProt P01282 81-107, looked up)	did not compete	–
galanin	did not compete	–
COc1ccc(OC)c(C(O)C(C)N)c1 (stereo not drawn) [methoxamine]	did not compete	–
Clc1cccc(Cl)c1N=C1NCCN1 [clonidine]	did not compete	–

— patent US6242199A, “Assays for growth hormone secretagogue receptors” (Merck & Co., Inc., priority 1998, dated 2001)
